Assay results reported in paper PMC9823006 (Nature Communications, 2023).
Several values for one entry are separate records, joined by “and”; a condition that tells them apart may be missing. Equal entries are not always repeated.

target: T1, KalbSec14 (Rattus norvegicus, UniProt P97924, N62Y/T46S); experiment: Liposome flotation binding assay (Accudenz gradient, Western blot); details: Golgi-mixture liposomes with 8% test lipid; result in words
T1 construct: His6 (TEV-cleavable) (N, cleaved yes); made in house; host or cells: E. coli BL21(DE3)
Protocol: Unilamellar liposomes formed by mixing synthetic dioleoyl phospholipids and cholesterol in proportions mimicking the membranes of the trans-Golgi network (Golgi-mixture) were incubated with Kal^bSec14. An Accudenz gradient was used to separate liposome-bound proteins, which were recovered from the top of the gradient (fraction 1), from unbound proteins, which remained at the bottom (fraction 4). Protein levels in each fraction were analyzed by Western blotting with an antibody to the Sec14 domain of Kalirin.
(§1) The synthetic and natural lipids used in flotation assays were purchased from Avanti Polar Lipids, Inc. (Supplementary Table 2). All powdered lipids were dissolved in chloroform per the manufacturer’s instructions. Liposomes were prepared as previously described. […] Individual test lipids were dried together with the control lipid mix under a nitrogen stream and lyophilized overnight. Each dried lipid film was reconstituted to a final concentration of 1 mM in HN buffer containing 20 mM HEPES (pH 7.4) and 150 mM NaCl. Each final lipid mixtures consisted of 52% DOPC, 20% DOPE, 5% DOPS, 15% cholesterol and 8% tested lipid; inclusion of a trace amount of fluorescent lipid (Liss Rhod PE) allowed for localization of liposomes following gradient fractionation (see below). Each lipid mixture underwent five freeze-thaw cycles separated by vigorous vortexing each time it was thawed. Using a mini-extruder, unilamellar liposomes were prepared by passing each lipid mixture 21 times through a polycarbonate membrane of 100-nm pore size. Hydrated lipid mixtures were stored at −20 °C for up to 1 month; liposomes were freshly prepared for each experiment.
(§2) Flotation assays were conducted following the protocol previously described. Accudenz (Accurate Chemical and Scientific Corp., Westbury, NY) solutions (80 and 20% weight/vol) were prepared in HN buffer. To remove any particulate material, the protein to be tested was first centrifuged at 436,000 g at 4 °C for 15 min in a TL-100 ultracentrifuge using a Beckman TLA100.2 fixed angle rotor. Freshly prepared unilamellar liposomes (50 μl) were combined with 0.2 μg of the centrifuged protein and incubated at room temperature for 30 min. The entire liposome/protein mixture was then combined with 50 μl of 80% Accudenz at the bottom of an ultracentrifuge tube and carefully mixed to completion by pipetting. The resulting mixture was overlayered with […] of 20% Accudenz and then with 50 μl of HN buffer. Samples were centrifuged at 259,000 g at 4 °C for 30 min in the same ultracentrifuge using a Beckman TLS55 swinging bucket rotor. Gradients were then divided into four 100-μl fractions, which were carefully collected from the bottom of the tube using gel loading micropipette tips. Each fraction was analyzed for liposome and protein content using spectrophotometry (546-nm excitation/571-nm emission) and Western blot, respectively. Only those assays with at least 90% of the Liss Rhod PE marker recovered in the top fraction (fraction 1) were used for Western bloting analysis.
(§3) For Western bloting analysis, equal aliquots of each gradient fraction were denatured in 1× Laemmli sample buffer, fractionated on 15% acrylamide gels, and transferred to PVDF membranes. The protein content was detected using a custom-made rabbit antibody to the Sec14 domain of Kalirin (CT302[69], 1:3000) and an HRP-tagged goat anti-rabbit IgG (H + L) secondary antibody (catalog # 31460, 1:6000; ThermoFisher Scientific). SuperSignal West chemiluminescent substrate (Thermo Scientific) and a Syngene PXi digital imaging system (Synoptics Group) were used to visualize blots, with exposures adjusted to be in the linear range.

Row | binding of Kal^bSec14 to liposomes containing the lipid | Compound
1 | precludes binding | CCCCCCCCCCCCCC(=O)OC[C@H](COP(=O)([O-])OCC[N+](C)(C)C)OC(=O)CCCCCCCCCCCCC [DMPC, 1,2-dimyristoyl-sn-glycero-3-phosphocholine]
2 | fail to interact | CCCCCCCCCCCCC(=O)OC[C@@H](O)COP(=O)(O)OC[C@H](N)C(=O)O [LPS13:0, 1-tridecanoyl-sn-glycero-3-phospho-L-serine]
3 | fail to interact | CCCCCCCCCCCCC(=O)OC[C@@H](O)COP(=O)(O)OC1C(O)C(O)C(O)C(O)C1O (some centres unmarked) [LPI13:0, 1-tridecanoyl-2-hydroxy-sn-glycero-3-phospho-(1'-myo-inositol)]
4 | fail to interact | CCCCCCCCCCCCCC(=O)OC[C@@H](O)COP(=O)(O)OCC(O)CO (mixture of isomers) [LPG14:0, 1-myristoyl-2-hydroxy-sn-glycero-3-phospho-(1'-rac-glycerol)]

same assay, conditions: mean of independent experiments; normalized to total protein recovered; test lipid 8% of liposome lipid

Row | Fraction 1 protein content (top fraction, liposome-bound), densitometry, Ave. | Fraction 2 protein content, densitometry, Ave. | Fraction 3 protein content, densitometry, Ave. | Fraction 4 protein content (bottom fraction, unbound), densitometry, Ave. | Compound
5 | 0.0259 | 0.0121 | 0.11 | 0.85 | CCCCCCCCCCCCCC(=O)OC[C@H](COP(=O)([O-])OCC[N+](C)(C)C)OC(=O)CCCCCCCCCCCCC [DMPC, 1,2-dimyristoyl-sn-glycero-3-phosphocholine]
6 | 0.03 | 0.0069 | 0.09 | 0.88 | CCCCCCCCCCCCC(=O)OC[C@@H](O)COP(=O)(O)OC[C@H](N)C(=O)O [LPS13:0, 1-tridecanoyl-sn-glycero-3-phospho-L-serine]
7 | 0.028 | 0.00535 | 0.18 | 0.79 | CCCCCCCCCCCCC(=O)OC[C@@H](O)COP(=O)(O)OC1C(O)C(O)C(O)C(O)C1O (some centres unmarked) [LPI13:0, 1-tridecanoyl-2-hydroxy-sn-glycero-3-phospho-(1'-myo-inositol)]
8 | 0.05 | 0.00765 | 0.0849 | 0.86 | CCCCCCCCCCCCCC(=O)OC[C@@H](O)COP(=O)(O)OCC(O)CO (mixture of isomers) [LPG14:0, 1-myristoyl-2-hydroxy-sn-glycero-3-phospho-(1'-rac-glycerol)]

same assay, conditions: single experiments; normalized to total protein recovered from each gradient; test lipid 8% of liposome lipid

Row | Fraction 1 protein content (top fraction, liposome-bound), densitometry | Compound
9 | 0.03 and 0.0163 and 0.0322 | CCCCCCCCCCCCCC(=O)OC[C@H](COP(=O)([O-])OCC[N+](C)(C)C)OC(=O)CCCCCCCCCCCCC [DMPC, 1,2-dimyristoyl-sn-glycero-3-phosphocholine]
10 | 0.0252 and 0.03 | CCCCCCCCCCCCC(=O)OC[C@@H](O)COP(=O)(O)OC1C(O)C(O)C(O)C(O)C1O (some centres unmarked) [LPI13:0, 1-tridecanoyl-2-hydroxy-sn-glycero-3-phospho-(1'-myo-inositol)]

same assay, conditions: single experiments; normalized to total protein recovered; test lipid 8% of liposome lipid

Row | Fraction 3 protein content, densitometry | Fraction 4 protein content (bottom fraction, unbound), densitometry | Fraction 2 protein content, densitometry | Compound
11 | 0.10 and 0.15 and 0.0759 | 0.86 and 0.83 and 0.87 |  | CCCCCCCCCCCCCC(=O)OC[C@H](COP(=O)([O-])OCC[N+](C)(C)C)OC(=O)CCCCCCCCCCCCC [DMPC, 1,2-dimyristoyl-sn-glycero-3-phosphocholine]
12 |  | 0.88 and 0.93 and 0.85 and 0.84 |  | CCCCCCCCCCCCC(=O)OC[C@@H](O)COP(=O)(O)OC[C@H](N)C(=O)O [LPS13:0, 1-tridecanoyl-sn-glycero-3-phospho-L-serine]
13 |  | 0.70 and 0.76 and 0.89 |  | CCCCCCCCCCCCC(=O)OC[C@@H](O)COP(=O)(O)OC1C(O)C(O)C(O)C(O)C1O (some centres unmarked) [LPI13:0, 1-tridecanoyl-2-hydroxy-sn-glycero-3-phospho-(1'-myo-inositol)]
14 | 0.07 and 0.09 | 0.89 and 0.86 and 0.83 | 0.00729 and 0.00538 and 0.01 | CCCCCCCCCCCCCC(=O)OC[C@@H](O)COP(=O)(O)OCC(O)CO (mixture of isomers) [LPG14:0, 1-myristoyl-2-hydroxy-sn-glycero-3-phospho-(1'-rac-glycerol)]

target: T2, Kal^Sec14 (Rattus norvegicus, UniProt P97924, N62Y/T46S); experiment: as above; details: Suppl. Fig. 9b,c, average, biological replication ≥ 3
T2 construct: 19.4 kDa); His6 (TEV-cleavable) (N, cleaved yes); made in house; host or cells: E. coli BL21(DE3)
Protocol: as §1, §2
as §3, with “range. After background subtraction, bands were quantified using the GeneSys software provided with the imaging system, and data were represented as a proportion of total protein recovered. Uncropped blots, quantification of each data point and exact P-values are provided in the Source Data file. […]” for “range.”
a. Representative Western blots from flotation assays with Kal Sec14 alone (Control), and Kal Sec14 with the control lipid mix (Lipo) or with the lipid mix containing the indicated additional lipid. After binding and separation of liposome bound Kal Sec14 from unbound Kal Sec14 on Accudenz gradients, the protein content of four gradient fractions was dete rmined by immunoblot; liposomes were recovered from the top fraction (fraction 1). Source data are […]

Row | Densitometry values for the Western blots, Fraction 1, Ave. | Densitometry values for the Western blots, Fraction 2, Ave. | Densitometry values for the Western blots, Fraction 3, Ave. | Densitometry values for the Western blots, Fraction 4, Ave. | Compound
15 | 0.03 | 0.01 | 0.11 | 0.85 | CCCCCCCCCCCCCC(=O)OC[C@H](COP(=O)([O-])OCC[N+](C)(C)C)OC(=O)CCCCCCCCCCCCC [DMPC, 1,2-dimyristoyl-sn-glycero-3-phosphocholine]
16 | 0.05 | 0.00866 | 0.09 | 0.86 | CCCCCCCCCCCCC(=O)OC[C@@H](O)COP(=O)(O)OC[C@H](N)C(=O)O [LPS13:0, 1-tridecanoyl-sn-glycero-3-phospho-L-serine]
17 | 0.0225 | 0.0117 | 0.17 | 0.80 | CCCCCCCCCCCCC(=O)OC[C@@H](O)COP(=O)(O)OC1C(O)C(O)C(O)C(O)C1O (some centres unmarked) [LPI13:0, 1-tridecanoyl-2-hydroxy-sn-glycero-3-phospho-(1'-myo-inositol)]
18 | 0.05 | 0.0118 | 0.0754 | 0.86 | CCCCCCCCCCCCCC(=O)OC[C@@H](O)COP(=O)(O)OCC(O)CO (mixture of isomers) [LPG14:0, 1-myristoyl-2-hydroxy-sn-glycero-3-phospho-(1'-rac-glycerol)]

same assay, conditions: Suppl. Fig. 9b,c, individual experiments (Exp. 1-4)

Row | Densitometry values for the Western blots, Fraction 1 | Densitometry values for the Western blots, Fraction 2 | Densitometry values for the Western blots, Fraction 3 | Densitometry values for the Western blots, Fraction 4 | Compound
19 | 0.0333 and 0.0235 and 0.03 | 0.00764 and 0.00497 and 0.0174 | 0.08 and 0.10 and 0.15 | 0.87 and 0.81 | CCCCCCCCCCCCCC(=O)OC[C@H](COP(=O)([O-])OCC[N+](C)(C)C)OC(=O)CCCCCCCCCCCCC [DMPC, 1,2-dimyristoyl-sn-glycero-3-phosphocholine]
20 | 0.07 and 0.05 and 0.025 and 0.0554 | 0.00695 and 0.01 and 0.00643 and 0.0108 | 0.07 and 0.05 and 0.16 | 0.86 and 0.89 and 0.90 and 0.78 | CCCCCCCCCCCCC(=O)OC[C@@H](O)COP(=O)(O)OC[C@H](N)C(=O)O [LPS13:0, 1-tridecanoyl-sn-glycero-3-phospho-L-serine]
21 | 0.0325 and 0.0143 and 0.02 | 0.00684 and 0.00931 and 0.019 | 0.10 and 0.16 and 0.24 | 0.86 and 0.82 and 0.72 | CCCCCCCCCCCCC(=O)OC[C@@H](O)COP(=O)(O)OC1C(O)C(O)C(O)C(O)C1O (some centres unmarked) [LPI13:0, 1-tridecanoyl-2-hydroxy-sn-glycero-3-phospho-(1'-myo-inositol)]
22 | 0.0538 and 0.045 and 0.06 | 0.00506 and 0.000399 and 0.03 | 0.0633 and 0.055 and 0.11 | 0.88 and 0.90 and 0.80 | CCCCCCCCCCCCCC(=O)OC[C@@H](O)COP(=O)(O)OCC(O)CO (mixture of isomers) [LPG14:0, 1-myristoyl-2-hydroxy-sn-glycero-3-phospho-(1'-rac-glycerol)]

target: T1, KalbSec14; experiment: Isothermal titration calorimetry (preliminary); assay type: binding; details: preliminary ITC, data not shown

Row | ITC signal | Compound
23 | no ITC signal was observed | CCCCCCCCCCOP(=O)([O-])OCC[N+](C)(C)C [FC10, decylphosphocholine]
